Assays:
hTDO = molecular target: T1, hTDO (Homo sapiens, UniProt P48775); test: hTDO inhibitory potency evaluation (fluorescence assay); format: biochemical
T1 construct: purchased Vinci-Biochem
Experimental: Additionally, to determine IDO1 selectivity, all final compounds were assayed for their inhibitory potencies towards hIDO2 and hTDO. For this purpose, two new protocols were developed based on the published fluorescence assay for hIDO1 [25]. Sodium ascorbate, methylene blue, and bovine catalase were used in the same concentrations as for hIDO1. 50 mM phosphate buffers with pH values of 7.5 and 7.0 were used for hIDO2 and hTDO, respectively, as has been already mentioned before. First, the activities of hIDO2 and hTDO were determined at four different concentrations. […] Additionally, the effect of DMSO concentration on enzyme activity was investigated. […] The optimal hIDO2 and hTDO assay concentrations of the substrate L-Trp were determined to be 4 mM and 500 μM, respectively.
The activity of the compounds on hTDO was determined according to the previously reported fluorescence protocol for hIDO1 [25] and reported absorbance protocols for hTDO [30] with several modifications. Recombinant hTDO was purchased from Vinci-Biochem (Vinci-Biochem, Vinci, Italy), bovine catalase was purchased from Sigma-Aldrich (Sigma-Aldrich, St. Louis, MO, USA). Prior to the measurement of activity for compounds, the enzyme activity was determined, and optimal assay enzyme concentration was selected. The amounts of reagents needed to perform the assay were optimized. Briefly, the reagents needed were dissolved in 50 mM potassium phosphate buffer (pH 7.0, 0.01%, v/v Tween 20), the reaction was performed in black 384-well microplates. After the addition of 1 μL of 100 mM sodium ascorbate neutralized with equimolar amount of 1 M NaOH, 1 μL of 100 μM methylene blue, 1 μL of 1 mg/mL bovine catalase, 0.5 μL of DMSO (negative control) or solution of a compound, 5 μL of 300 nM hTDO and 1.5 μL of 3.3 mM L-Trp were added and the microplate was incubated for 60 min at 37 °C. The reaction was quenched with the addition of 10 μL of 400 mM piperidine solution in MilliQ water and the formation of the examined fluorophore began following incubation at 65 °C for 20 min. The production of NFK-derived fluorophore (λEX = 400 nm, λEM = 500 nm) was measured using a microplate reader (Synergy H4; BioTek Instruments, Inc., Winooski, VT, USA) after 60 min post-incubation at room temperature. In the preliminary testing compounds were tested at 100 μM with activities determined as residual activities—RA, which were calculated to% of inhibition, presented in Table 1 and Table 2 (% of inhibition = 100% − RA). All determinations were carried out in duplicates.

Hep G2 cell line = test: Cytotoxicity, MTS cell proliferation assay; format: cell-based; conditions: Hep G2 cells
Experimental: All active compounds were additionally evaluated on a cellular level, starting with the determination of cytotoxicity on Hep G2 cell line using the MTS assay (Figure 3), where inner salt of [3-(4,5-dimethylthiazol-2-yl)-5-(3-carboxymethoxyphenyl)-2-(4-sulfophenyl)-2H-tetrazolium is converted to formazan product, its quantity is directly proportional to the number of living cells. Since the majority of compounds were only partially soluble in a cell medium at concentrations above 100 μM, their effect on cell viability was measured at 50 μM, 10 μM, and 1 μM. […] Taken together, the results obtained from cellular tests reminded us of the necessity to consider the physicochemical properties of compounds even at the early stages of design.
Cytotoxicity of the compounds was determined on HepG2 cell line using the MTS cell proliferation assay (CellTiter 96 AQueous One Solution Cell Proliferation Assay, Promega, Madison, WI, USA). The cells were seeded in 96-well plates (3 × 10^4 cells/well) and maintained in Dulbecco’s Modified Eagle’s Medium, supplemented with 10% fetal bovine serum (both from Thermo Fisher Scientific, Waltham, MA, USA) and 100 µg/mL gentamicin (Sigma-Aldrich, St. Louis, MO, USA). Following overnight incubation in a humidified chamber at 37 °C and 5% CO2 cells were treated with the compounds of interest at final concentrations of 1 µM, 10 µM, 50 µM, 100 µM, 150 µM, and 200 µM. After 24h incubation under the same conditions, 100 µL of the medium from each well were collected and mixed with 10 µL of MTS solution. Following 3h incubation, the absorbance (λABS = 490 nm) was measured using a microplate reader (Synergy H4; BioTek Instruments, Inc., Winooski, VT, USA). The results are expressed as means of triplicates ± standard deviation of three independent experiments.

IDO1 = IDO1 (Homo sapiens, UniProt P14902); test: hIDO1 inhibitory potency evaluation (fluorescence assay, NFK-derived fluorophore); format: biochemical; parameters: gene encoding human IDO1 residues 6-403 His-tagged at the N-terminus; His tag (N); made in house; host or cells: Escherichia coli NiCo21
IDO1, sequence (P14902 6-403): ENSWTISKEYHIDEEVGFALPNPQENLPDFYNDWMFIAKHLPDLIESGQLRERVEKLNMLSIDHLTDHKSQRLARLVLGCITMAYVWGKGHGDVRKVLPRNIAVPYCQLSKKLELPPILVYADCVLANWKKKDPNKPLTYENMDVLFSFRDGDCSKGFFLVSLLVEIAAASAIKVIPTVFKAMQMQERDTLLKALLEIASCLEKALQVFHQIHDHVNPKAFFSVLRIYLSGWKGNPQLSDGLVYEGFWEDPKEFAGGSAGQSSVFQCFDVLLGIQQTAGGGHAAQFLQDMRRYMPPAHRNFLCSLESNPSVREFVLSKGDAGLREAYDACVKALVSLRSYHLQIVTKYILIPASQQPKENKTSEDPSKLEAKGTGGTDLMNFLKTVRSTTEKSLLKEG

T1 sequence (P48775 whole entry): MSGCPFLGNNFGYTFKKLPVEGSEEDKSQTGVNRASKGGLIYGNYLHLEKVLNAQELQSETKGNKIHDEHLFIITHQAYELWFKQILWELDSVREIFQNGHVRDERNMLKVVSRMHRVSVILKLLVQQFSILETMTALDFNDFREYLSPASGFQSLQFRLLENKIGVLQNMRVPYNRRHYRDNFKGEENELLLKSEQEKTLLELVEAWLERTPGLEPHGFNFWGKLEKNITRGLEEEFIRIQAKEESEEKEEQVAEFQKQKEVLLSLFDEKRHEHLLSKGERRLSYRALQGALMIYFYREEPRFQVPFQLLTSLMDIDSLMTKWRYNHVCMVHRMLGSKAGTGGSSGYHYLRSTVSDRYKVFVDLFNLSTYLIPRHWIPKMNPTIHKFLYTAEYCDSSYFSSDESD

hTDO inhibition (in words) (hTDO): no activity | melting point: 225 to 227 °C | hIDO1 inhibition (in words) (IDO1): low micromolar range | IC50 (IDO1; recombinant hIDO1, mean ± SD of at least two independent determinations, read-out: IDO1 IC50): 23 µM
Structure (SMILES): O=C(Cn1cnc2onc(-c3ccc(F)cc3)c2c1=O)Nc1ccc(C(F)(F)F)cc1 [Compound 23]
cytotoxicity profile (Hep G2 cell line): satisfying cytotoxicity profile
